Columns and labels:
RON (human) = RON (human) (Homo sapiens, UniProt Q04912); test: RON kinase AlphaScreen assay (Km of ATP); assay type: biochemical; details: ATP at Km; at least duplicate experiments
Summary of the method: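 Human RON phosphorylated biotinylated poly(Glu,Tyr) (200 ng/μL) at Km ATP in 50 mM HEPES pH 7.4, 12.5 mM MgCl2, 1% glycerol, 0.334 mM vanadate, 1% DMSO. Reaction ran 30 min at RT after enzyme addition. Product was detected by AlphaScreen with PT66 beads after 1 h.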

MET (human) = MET (human) (Homo sapiens, UniProt P08581); test: MET kinase AlphaScreen assay (Km of ATP); assay type: biochemical; details: ATP at Km; at least duplicate experiments
Summary of the method: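 Biotinylated poly(Glu,Tyr) (200 ng/μL) phosphorylated by MET with ATP at an enzyme-optimized level, in 50 mM HEPES pH 7.4 with Mg2+/Mn2+ and vanadate, 1% DMSO. Reaction runs 60 min at RT. PT66 AlphaScreen donor/acceptor beads are added and signal is read after 1 h.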

Chain of RON (human) (Q04912 25-1400): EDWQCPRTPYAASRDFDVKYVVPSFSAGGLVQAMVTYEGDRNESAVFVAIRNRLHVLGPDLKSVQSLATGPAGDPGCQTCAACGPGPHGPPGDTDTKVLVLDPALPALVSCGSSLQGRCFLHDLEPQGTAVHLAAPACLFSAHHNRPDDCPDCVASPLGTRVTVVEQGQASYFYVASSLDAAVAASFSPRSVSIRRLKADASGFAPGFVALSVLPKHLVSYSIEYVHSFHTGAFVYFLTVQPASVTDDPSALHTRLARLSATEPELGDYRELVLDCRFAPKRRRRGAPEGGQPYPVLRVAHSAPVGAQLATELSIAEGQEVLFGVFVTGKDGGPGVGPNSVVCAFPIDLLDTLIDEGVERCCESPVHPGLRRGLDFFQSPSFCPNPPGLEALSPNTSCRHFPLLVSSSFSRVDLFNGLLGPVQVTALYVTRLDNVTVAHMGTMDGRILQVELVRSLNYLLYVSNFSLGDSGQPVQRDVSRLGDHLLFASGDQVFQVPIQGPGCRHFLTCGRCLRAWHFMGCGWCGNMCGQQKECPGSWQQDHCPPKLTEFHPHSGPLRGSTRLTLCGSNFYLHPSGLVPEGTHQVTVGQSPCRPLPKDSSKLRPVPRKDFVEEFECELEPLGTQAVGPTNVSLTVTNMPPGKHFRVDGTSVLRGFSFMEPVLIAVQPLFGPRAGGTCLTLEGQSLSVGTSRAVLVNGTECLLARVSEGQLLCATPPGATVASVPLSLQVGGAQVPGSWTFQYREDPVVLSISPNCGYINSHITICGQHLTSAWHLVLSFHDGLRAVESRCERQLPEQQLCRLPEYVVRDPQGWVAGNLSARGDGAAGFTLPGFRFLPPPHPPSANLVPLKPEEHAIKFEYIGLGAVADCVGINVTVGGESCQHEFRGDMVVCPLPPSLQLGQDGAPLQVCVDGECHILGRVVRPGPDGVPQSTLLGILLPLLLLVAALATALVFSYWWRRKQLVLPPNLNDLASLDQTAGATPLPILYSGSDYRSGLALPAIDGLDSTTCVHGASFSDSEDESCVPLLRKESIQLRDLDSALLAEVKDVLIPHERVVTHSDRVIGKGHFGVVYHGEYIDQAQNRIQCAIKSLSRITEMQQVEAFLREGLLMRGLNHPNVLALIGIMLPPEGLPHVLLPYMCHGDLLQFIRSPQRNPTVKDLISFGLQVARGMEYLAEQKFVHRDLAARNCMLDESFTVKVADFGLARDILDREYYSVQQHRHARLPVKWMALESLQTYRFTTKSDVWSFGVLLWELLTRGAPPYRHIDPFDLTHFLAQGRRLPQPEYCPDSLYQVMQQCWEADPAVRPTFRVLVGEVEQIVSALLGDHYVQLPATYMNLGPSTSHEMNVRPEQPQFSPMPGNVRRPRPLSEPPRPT
Chain of MET (human) (P08581 25-1390): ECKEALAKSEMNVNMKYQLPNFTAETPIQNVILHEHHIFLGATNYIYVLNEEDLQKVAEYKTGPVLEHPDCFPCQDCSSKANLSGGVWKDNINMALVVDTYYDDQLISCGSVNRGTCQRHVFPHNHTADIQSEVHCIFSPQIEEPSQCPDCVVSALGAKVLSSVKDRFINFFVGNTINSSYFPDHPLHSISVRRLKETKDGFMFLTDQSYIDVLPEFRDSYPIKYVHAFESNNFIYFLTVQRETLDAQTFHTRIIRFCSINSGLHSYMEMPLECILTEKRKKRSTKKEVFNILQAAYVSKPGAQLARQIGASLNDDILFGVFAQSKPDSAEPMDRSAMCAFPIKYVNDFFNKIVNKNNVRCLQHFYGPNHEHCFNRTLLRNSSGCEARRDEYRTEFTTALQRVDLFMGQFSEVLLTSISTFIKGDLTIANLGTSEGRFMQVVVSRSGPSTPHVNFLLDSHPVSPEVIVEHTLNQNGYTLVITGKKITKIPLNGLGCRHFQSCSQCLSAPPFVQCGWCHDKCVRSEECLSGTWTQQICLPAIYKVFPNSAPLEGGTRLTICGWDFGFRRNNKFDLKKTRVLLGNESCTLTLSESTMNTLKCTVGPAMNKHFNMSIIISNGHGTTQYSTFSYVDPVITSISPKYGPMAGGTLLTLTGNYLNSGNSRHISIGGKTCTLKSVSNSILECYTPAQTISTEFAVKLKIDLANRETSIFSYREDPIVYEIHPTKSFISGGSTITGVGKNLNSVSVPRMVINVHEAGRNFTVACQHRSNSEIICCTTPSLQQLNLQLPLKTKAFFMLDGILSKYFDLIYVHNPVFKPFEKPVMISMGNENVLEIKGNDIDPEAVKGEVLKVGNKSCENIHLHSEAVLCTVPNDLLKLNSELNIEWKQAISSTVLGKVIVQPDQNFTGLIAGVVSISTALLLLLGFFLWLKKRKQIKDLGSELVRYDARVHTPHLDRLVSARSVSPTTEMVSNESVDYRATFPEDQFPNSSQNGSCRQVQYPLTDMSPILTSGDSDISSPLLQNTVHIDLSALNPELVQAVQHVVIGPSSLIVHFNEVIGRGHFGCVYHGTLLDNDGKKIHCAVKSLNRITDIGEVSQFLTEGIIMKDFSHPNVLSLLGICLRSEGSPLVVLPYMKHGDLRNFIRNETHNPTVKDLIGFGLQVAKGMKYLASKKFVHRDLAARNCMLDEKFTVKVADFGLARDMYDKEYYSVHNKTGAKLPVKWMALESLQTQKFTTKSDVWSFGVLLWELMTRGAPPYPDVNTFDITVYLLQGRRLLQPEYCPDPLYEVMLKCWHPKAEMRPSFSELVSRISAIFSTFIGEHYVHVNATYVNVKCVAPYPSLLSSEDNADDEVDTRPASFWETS

IC50 (RON (human)) [nM] | IC50 (MET (human)) [nM] | Structure (SMILES)
> 20000 | 1000 to 20000 | NC(=O)c1ccc(-c2cnc(N)c(-c3nc4ccccc4s3)c2)cc1 [Example 190, 4-(6-Amino-5-benzothiazol-2-ylpyridin-3-yl)benzamide]
> 20000 | > 20000 | CCN(CC)C(=O)c1ccc(-c2cnc(N)c(-c3nc4ccccc4s3)c2)cc1 [Example 191, 4-(6-Amino-5-benzothiazol-2-ylpyridin-3-yl)-N,N-diethylbenzamide]
1000 to 20000 | 1000 to 20000 | Nc1ncc(-c2cccc(C(=O)NCc3ccco3)c2)cc1-c1nc2ccccc2s1 [Example 192, 3-(6-Amino-5-benzothiazol-2-ylpyridin-3-yl)-N-furan-2-ylmethylbenzamide]
1000 to 20000 | 1000 to 20000 | Nc1ncc(-c2ccc(C(=O)NCc3ccco3)cc2)cc1-c1nc2ccccc2s1 [Example 193, 4-(6-Amino-5-benzothiazol-2-ylpyridin-3-yl)-N-furan-2-ylmethylbenzamide]
> 20000 | > 20000 | CNC(=O)c1cccc(-c2cnc(N)c(-c3nc4ccccc4s3)c2)c1 [Example 194, 3-(6-Amino-5-benzothiazol-2-ylpyridin-3-yl)-N-methylbenzamide]
> 20000 | > 20000 | Nc1ncc(-c2ccc(C(=O)N3CCCCC3)cc2)cc1-c1nc2ccccc2s1 [Example 195, [4-(6-Amino-5-benzothiazol-2-ylpyridin-3-yl)phenyl]piperidin-1-ylmethanone]
1000 to 20000 | 1000 to 20000 | NC(=O)c1cccc(-c2cnc(N)c(-c3nc4ccccc4s3)c2)c1 [Example 196, 3-(6-Amino-5-benzothiazol-2-ylpyridin-3-yl)benzamide]
1000 to 20000 | 1000 to 20000 | Nc1ncc(-c2cnn(CCN3CCOCC3)c2)cc1-c1nc2ccccc2s1 [Example 197, 3-Benzothiazol-2-yl-5-[1-(2-morpholin-4-ylethyl)-1H-pyrazol-4-yl]pyridin-2-ylamine]
> 20000 | 1000 to 20000 | Nc1ncc(-c2ccc(C(=O)NC3CC3)cc2)cc1-c1nc2ccccc2s1 [Example 198, 4-(6-Amino-5-benzothiazol-2-ylpyridin-3-yl)-N-cyclopropylbenzamide]
1000 to 20000 | 1000 to 20000 | CNC(=O)c1ccc(-c2cnc(N)c(-c3nc4ccccc4s3)c2)cc1 [Example 199, 4-(6-Amino-5-benzothiazol-2-ylpyridin-3-yl)-N-methylbenzamide]
1000 to 20000 | 1000 to 20000 | Nc1ncc(-c2ccc(C(=O)O)cc2)cc1-c1nc2ccccc2s1 [Example 201, 4-(6-Amino-5-benzothiazol-2-ylpyridin-3-yl)-benzoic acid]
1000 to 20000 | 100 to 1000 | Nc1ncc(-c2ccc(C(=O)O)nc2)cc1-c1nc2ccccc2s1 [Example 202, 6′-Amino-5′-benzothiazol-2-yl-[3,3′]bipyridinyl-6-carboxylic acid]
> 20000 | 1000 to 20000 | Nc1ncc(-c2cccc(C(=O)N3CCCC3)c2)cc1-c1nc2ccccc2s1 [Example 204, [3-(6-Amino-5-benzothiazol-2-ylpyridin-3-yl)phenyl]pyrrolidin-1-ylmethanone]
1000 to 20000 | 1000 to 20000 | CC(=O)NCCNC(=O)c1cccc(-c2cnc(N)c(-c3nc4ccccc4s3)c2)c1 [Example 205, N-(2-Acetylaminoethyl)-3-(6-amino-5-benzothiazol-2-ylpyridin-3-yl)benzamide]
> 20000 | 1000 to 20000 | Nc1ncc(-c2cccc(C(=O)N3CCCCC3)c2)cc1-c1nc2ccccc2s1 [Example 206, [3-(6-Amino-5-benzothiazol-2-ylpyridin-3-yl)phenyl]piperidin-1-ylmethanone]
1000 to 20000 | 1000 to 20000 | CCN(CC)CCNC(=O)c1cccc(-c2cnc(N)c(-c3nc4ccccc4s3)c2)c1 [Example 207, 3-(6-Amino-5-benzothiazol-2-ylpyridin-3-yl)-N-(2-diethylaminoethyl)benzamide]
1000 to 20000 | 100 to 1000 | C[C@@H]1CN(C(=O)c2cccc(-c3cnc(N)c(-c4nc5ccccc5s4)c3)c2)C[C@H](C)N1 [Example 208, [3-(6-Amino-5-benzothiazol-2-ylpyridin-3-yl)phenyl]-(cis-3,5-dimethylpiperazin-1-yl)methanone]
1000 to 20000 | 1000 to 20000 | Nc1ncc(-c2cccc(C(=O)NCCCN3CCCC3)c2)cc1-c1nc2ccccc2s1 [Example 209, 3-(6-Amino-5-benzothiazol-2-ylpyridin-3-yl)-N-(3-pyrrolidin-1-ylpropyl)benzamide]

IC50 (RON (human)) [nM] | IC50 (MET (human)) [nM] | Structure (SMILES)
1000 to 20000 | 100 to 1000 | CN1CCC(N(C)C(=O)c2cccc(-c3cnc(N)c(-c4nc5ccccc5s4)c3)c2)CC1 [Example 210, 3-(6-Amino-5-benzothiazol-2-ylpyridin-3-yl)-N-methyl-N-(1-methylpiperidin-4-yl)benzamide]
1000 to 20000 | 1000 to 20000 | Nc1ncc(-c2cccc(C(=O)N3CCN(CC(=O)N4CCCC4)CC3)c2)cc1-c1nc2ccccc2s1 [Example 211, 2-{4-[3-(6-Amino-5-benzothiazol-2-ylpyridin-3-yl)benzoyl]piperazin-1-pyrrolidin-1-yl}-1-ylethanone]
> 20000 | 1000 to 20000 | CC(=O)N1CCN(C(=O)c2cccc(-c3cnc(N)c(-c4nc5ccccc5s4)c3)c2)CC1 [Example 212, 1-{4-[3-(6-Amino-5-benzothiazol-2-ylpyridin-3-yl)benzoyl]piperazin-1-yl}ethanone]
1000 to 20000 | 1000 to 20000 | Nc1ncc(-c2cccc(C(=O)N3CCCC(O)C3)c2)cc1-c1nc2ccccc2s1 (stereo not drawn) [Example 213, [3-(6-Amino-5-benzothiazol-2-ylpyridin-3-yl)phenyl]-(3-hydroxypiperidin-1-yl)methanone]
> 20000 | 1000 to 20000 | C[C@@H]1CN(C(=O)c2cccc(-c3cnc(N)c(-c4nc5ccccc5s4)c3)c2)C[C@H](C)O1 [Example 214, [3-(6-Amino-5-benzothiazol-2-ylpyridin-3-yl)phenyl]-(cis-2,6-dimethylmorpholin-4-yl)methanone]
1000 to 20000 | 1000 to 20000 | CN(C)C(=O)CN1CCN(C(=O)c2cccc(-c3cnc(N)c(-c4nc5ccccc5s4)c3)c2)CC1 [Example 215, 2-{4-[3-(6-Amino-5-benzothiazol-2-ylpyridin-3-yl)benzoyl]piperazin-1-yl}-N,N-dimethylacetamide]
> 20000 | > 20000 | COCCN(CCOC)C(=O)c1cccc(-c2cnc(N)c(-c3nc4ccccc4s3)c2)c1 [Example 216, 3-(6-Amino-5-benzothiazol-2-ylpyridin-3-yl)-N,N-bis-(2-methoxyethyl)benzamide]
1000 to 20000 | 100 to 1000 | Nc1ncc(-c2cccc(C(=O)N3CCC(N4CCCC4)CC3)c2)cc1-c1nc2ccccc2s1 [Example 217, [3-(6-Amino-5-benzothiazol-2-ylpyridin-3-yl)phenyl]-(4-pyrrolidin-1-ylpiperidin-1-yl)methanone]
1000 to 20000 | 100 to 1000 | CN1CCC(NC(=O)c2cccc(-c3cnc(N)c(-c4nc5ccccc5s4)c3)c2)CC1 [Example 218, 3-(6-Amino-5-benzothiazol-2-ylpyridin-3-yl)-N-(1-methylpiperidin-4-yl)benzamide]
> 20000 | 100 to 1000 | NC(=O)C1CCN(C(=O)c2cccc(-c3cnc(N)c(-c4nc5ccccc5s4)c3)c2)CC1 [Example 219, 1-[3-(6-Amino-5-benzothiazol-2-ylpyridin-3-yl)benzoyl]piperidine-4-carboxylic acid amide]
1000 to 20000 | 100 to 1000 | CN(C)CCN(C)C(=O)c1cccc(-c2cnc(N)c(-c3nc4ccccc4s3)c2)c1 [Example 220, 3-(6-Amino-5-benzothiazol-2-ylpyridin-3-yl)-N-(2-dimethylaminoethyl)-N-methylbenzamide]
1000 to 20000 | 1000 to 20000 | Nc1ncc(-c2cccc(C(=O)N[C@H]3CCCC[C@@H]3O)c2)cc1-c1nc2ccccc2s1 [Example 221, 3-(6-Amino-5-benzothiazol-2-ylpyridin-3-yl)-N-((1S,2S)-2-hydroxycyclohexyl)benzamide]
1000 to 20000 | 1000 to 20000 | Nc1ncc(-c2cccc(C(=O)N3CCC(O)C3)c2)cc1-c1nc2ccccc2s1 (stereo not drawn) [Example 222, [3-(6-Amino-5-benzothiazol-2-ylpyridin-3-yl)phenyl]-(3-hydroxypyrrolidin-1-yl)methanone]
1000 to 20000 | 1000 to 20000 | Nc1ncc(-c2cccc(C(=O)NCCCn3ccnc3)c2)cc1-c1nc2ccccc2s1 [Example 223, 3-(6-Amino-5-benzothiazol-2-ylpyridin-3-yl)-N-(3-imidazol-1-ylpropyl)benzamide]
1000 to 20000 | 100 to 1000 | CN(C)C1CCN(C(=O)c2cccc(-c3cnc(N)c(-c4nc5ccccc5s4)c3)c2)C1 (stereo not drawn) [Example 224, [3-(6-Amino-5-benzothiazol-2-ylpyridin-3-yl)phenyl]-(3-dimethylaminopyrrolidin-1-yl)methanone]
1000 to 20000 | 1000 to 20000 | Nc1ncc(-c2cccc(C(=O)NCCCN3CCOCC3)c2)cc1-c1nc2ccccc2s1 [Example 225, 3-(6-Amino-5-benzothiazol-2-ylpyridin-3-yl)-N-(3-morpholin-4-ylpropyl)benzamide]
1000 to 20000 | 100 to 1000 | CN1CCCN(C(=O)c2cccc(-c3cnc(N)c(-c4nc5ccccc5s4)c3)c2)CC1 [Example 226, [3-(6-Amino-5-benzothiazol-2-ylpyridin-3-yl)phenyl]-(4-methyl-[1,4]diazepan-1-yl)methanone]
1000 to 20000 | 1000 to 20000 | Nc1ncc(-c2cccc(C(=O)N3CCC(F)(F)C3)c2)cc1-c1nc2ccccc2s1 [Example 227, [3-(6-Amino-5-benzothiazol-2-ylpyridin-3-yl)phenyl]-(3,3-difluoropyrrolidin-1-yl)methanone]

— patent publication US8178668B2, “2-aminopyridine kinase inhibitors” (OSI Pharmaceuticals, LLC, priority 2008, dated 2012)
